Results as given in patent US10407422B2, “Triazolopyridine inhibitors of myeloperoxidase” (priority 2015, dated 2019).
pIC50: −log10 of the molar value.

Tests used:
[1] = target: T1, myeloperoxidase (MPO) (Homo sapiens (Human), UniProt P05164); assay: MPO peroxidation assay (Amplex Red assay); assay type: biochemical; conditions: potency range class
In short: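 Human MPO at 200 pM with 40 nM H2O2 preincubated 10 min at room temperature with inhibitor in 100 mM KPi pH 7.4. Reaction started with Amplex Red mixture (200 μM Amplex Red, 10 mM H2O2); resorufin fluorescence (Ex 535, Em 590 nm) read kinetically for 15 min. IC50 fitted from slopes over 180-540 s.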

[2] = target: T1, myeloperoxidase (MPO); assay: MPO chlorination assay (APF assay); assay type: biochemical; conditions: potency range class
In short: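 Human MPO (200 pM) preincubated 10 min at room temperature with inhibitor and 120 mM NaCl in 100 mM KPi pH 7.4. Reaction started with APF plus 10 μM H2O2, and hypochlorite-generated fluorescein read kinetically (ex 485/em 535 nm) for 3 min. IC50 from linear-phase slopes fitted to a four-parameter equation.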

T1 sequence (P05164 49-745): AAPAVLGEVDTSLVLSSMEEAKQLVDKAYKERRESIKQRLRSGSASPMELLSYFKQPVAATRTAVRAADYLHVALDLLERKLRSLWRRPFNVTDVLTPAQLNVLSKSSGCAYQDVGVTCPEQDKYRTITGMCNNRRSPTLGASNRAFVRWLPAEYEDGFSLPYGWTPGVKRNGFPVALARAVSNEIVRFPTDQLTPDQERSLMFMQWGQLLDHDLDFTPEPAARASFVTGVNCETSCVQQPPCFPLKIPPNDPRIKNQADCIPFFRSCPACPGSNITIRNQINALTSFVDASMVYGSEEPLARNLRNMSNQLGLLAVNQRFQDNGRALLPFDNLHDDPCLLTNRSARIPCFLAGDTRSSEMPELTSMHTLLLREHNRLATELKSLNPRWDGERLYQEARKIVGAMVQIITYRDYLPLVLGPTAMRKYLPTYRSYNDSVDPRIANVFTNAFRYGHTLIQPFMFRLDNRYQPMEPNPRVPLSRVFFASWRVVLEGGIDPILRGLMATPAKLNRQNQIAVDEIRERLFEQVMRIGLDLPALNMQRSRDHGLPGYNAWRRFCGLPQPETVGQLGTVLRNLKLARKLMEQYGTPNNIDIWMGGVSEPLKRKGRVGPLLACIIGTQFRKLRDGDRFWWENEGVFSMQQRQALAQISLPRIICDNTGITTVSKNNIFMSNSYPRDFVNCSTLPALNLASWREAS

## Nc1cc(Cc2cnn(Cc3ccc4c(c3)NCCC4)c2)c2nn[nH]c2n1 [Example 152, 7-{[1-(1,2,3,4-Tetrahydroquinolin-7-ylmethyl)-1H-pyrazol-4-yl]methyl}-3H-[1,2,3]triazolo[4,5-b]pyridin-5-amine]
[1]
  pIC50: 5.00 to 6.00
[2]
  pIC50: 7.00 to 9.00

## Nc1cc(Cc2cnn(Cc3ccc4c(c3)CNCC4)c2)c2nn[nH]c2n1 [Example 153, 7-{[1-(1,2,3,4-Tetrahydroisoquinolin-7-ylmethyl)-1H-pyrazol-4-yl]methyl}-3H-[1,2,3]triazolo[4,5-b]pyridin-5-amine]
[1]
  pIC50: 7.00 to 9.00
[2]
  pIC50: 7.00 to 9.00

## N#Cc1cccc(-c2ccc(Cn3cc(Cc4cc(N)nc5[nH]nnc45)cn3)cc2)c1 [Example 154, 3-(4-{[4-({5-Amino-3H-[1,2,3]triazolo[4,5-b]pyridin-7-yl}methyl)-1H-pyrazol-1-yl]methyl}phenyl)benzonitrile]
[1]
  pIC50: 6.00 to 7.00
[2]
  pIC50: 6.00 to 7.00

## Nc1cc(Cc2cnn(Cc3cccc(-c4ccc(OC(F)(F)F)cc4)c3)c2)c2nn[nH]c2n1 [Example 155, 7-{[1-({3-[4-(Trifluoromethoxy)phenyl]phenyl}methyl)-1H-pyrazol-4-yl]methyl}-3H-[1,2,3]triazolo[4,5-b]pyridin-5-amine]
[1]
  pIC50: 6.00 to 7.00
[2]
  pIC50: 6.00 to 7.00

## COc1ncc(-c2cccc(Cn3cc(Cc4cc(N)nc5[nH]nnc45)cn3)c2)cn1 [Example 156, 7-[(1-{[3-(2-Methoxypyrimidin-5-yl)phenyl]methyl}-1H-pyrazol-4-yl)methyl]-3H-[1,2,3]triazolo[4,5-b]pyridin-5-amine]
[1]
  pIC50: 7.00 to 9.00
[2]
  pIC50: 7.00 to 9.00

## Nc1cc(Cc2cnn(Cc3cccc(-c4cnoc4)c3)c2)c2nn[nH]c2n1 [Example 157, 7-[(1-{[3-(1,2-Oxazol-4-yl)phenyl]methyl}-1H-pyrazol-4-yl)methyl]-3H-[1,2,3]triazolo[4,5-b]pyridin-5-amine]
[1]
  pIC50: 6.00 to 7.00
[2]
  pIC50: 6.00 to 7.00

## N#Cc1cccc(Cn2cc(Cc3cc(N)nc4[nH]nnc34)cn2)c1 [Example 158, 3-{[4-({5-Amino-3H-[1,2,3]triazolo[4,5-b]pyridin-7-yl}methyl)-1H-pyrazol-1-yl]methyl}benzonitrile]
[1]
  pIC50: 7.00 to 9.00
[2]
  pIC50: 7.00 to 9.00

## CN1CCc2cc(Cn3cc(Cc4cc(N)nc5[nH]nnc45)cn3)ccc2C1 [Example 159, -((1-((2-Methyl-1,2,3,4-tetrahydroisoquinolin-6-yl)methyl)-1H-pyrazol-4-yl)methyl)-3H-[1,2,3]triazolo[4,5-b]pyridin-5-amine]
[1]
  pIC50: 7.00 to 9.00
[2]
  pIC50: 6.00 to 7.00

## Nc1cc(Cn2nnc3ccccc32)c2nn[nH]c2n1 [Example 160, 7-(1H-1,2,3-Benzotriazol-1-ylmethyl)-3H-[1,2,3]triazolo[4,5-b]pyridin-5-amine]
[1]
  pIC50: 7.00 to 9.00
[2]
  pIC50: 7.00 to 9.00

## Nc1cc(Cn2ncc(-c3ccccc3)n2)c2nn[nH]c2n1 [Example 161, 7-[(4-Phenyl-2H-1,2,3-triazol-2-yl)methyl]-3H-[1,2,3]triazolo[4,5-b]pyridin-5-amine]
[1]
  pIC50: 6.00 to 7.00
[2]
  pIC50: 5.00 to 6.00

## Nc1cc(Cn2cc(-c3ccccc3)nn2)c2nn[nH]c2n1 [Example 162, 7-[(4-Phenyl-1H-1,2,3-triazol-1-yl)methyl]-3H-[1,2,3]triazolo[4,5-b]pyridin-5-amine]
[1]
  pIC50: 6.00 to 7.00
[2]
  pIC50: 6.00 to 7.00

## Nc1cc(Cn2nc3ccc(Cl)cc3n2)c2nn[nH]c2n1 [Example 163, 7-[(5-Chloro-2H-1,2,3-benzotriazol-2-yl)methyl]-3H-[1,2,3]triazolo[4,5-b]pyridin-5-amine]
[1]
  pIC50: 5.00 to 6.00
[2]
  pIC50: 5.00 to 6.00

## Nc1cc(Cn2nc3cccc(Cl)c3n2)c2nn[nH]c2n1 [Example 164, 7-[(4-Chloro-2H-1,2,3-benzotriazol-2-yl)methyl]-3H-[1,2,3]triazolo[4,5-b]pyridin-5-amine]
[1]
  pIC50: 5.00 to 6.00
[2]
  pIC50: 5.00 to 6.00

## Nc1cc(Cn2nnc3cccc(Cl)c32)c2nn[nH]c2n1 [Example 165, 7-[(7-Chloro-1H-1,2,3-benzotriazol-1-yl)methyl]-3H-[1,2,3]triazolo[4,5-b]pyridin-5-amine]
[1]
  pIC50: 6.00 to 7.00
[2]
  pIC50: 6.00 to 7.00
